Legend:
VEGFR-2 = VEGFR-2 (Homo sapiens, UniProt P35968); experiment: VEGFR-2 inhibition rate test (kinase assay kit, colorimetric ELISA); details: concentration not given
[1] = test system: chorioallantoic membrane vessels; experiment: Activity test by chick chorioallantoic membrane method; type: in vivo; details: 5 uL medicine on cellulose membrane, chick embryo, 2 days
Description: After the shell membrane became wet, tore it open with ophthalmological tweezers so to expose the chorioallantoic membrane. • 6) Added 5 uL of selected medicine to a 0.5×0.5 cm cellulose membrane sterilized by high pressure, then set the membrane on the part of the chorioallantoic membrane with fewer vessels • 7) Closed the window, and put the embryos back into the hatch box to hatch for 2 days. • 8) Opened the transparent tape, and then opened the mixed cellulose membrane lightly with a tweezers. Measured the avascular area and took photographs.

Rat aortic ring = experiment: Rat Aortic Ring Assay; type: cell-based; details: observed on the sixth day
Summary of the method: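 1 mm abdominal aortic rings from 6-week-old SD animals embedded in Matrigel, cultured in DMEM/10% FBS with compound at various concentrations (≥3 wells), medium and compound renewed day 3. Microvessel area imaged on day 6 (×100, 3 random rings); inhibition rate scored: ⋆<30-60%, ⋆⋆60-90%, ⋆⋆⋆>90%.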

VEGFR-2, sequence (P35968 20-1356): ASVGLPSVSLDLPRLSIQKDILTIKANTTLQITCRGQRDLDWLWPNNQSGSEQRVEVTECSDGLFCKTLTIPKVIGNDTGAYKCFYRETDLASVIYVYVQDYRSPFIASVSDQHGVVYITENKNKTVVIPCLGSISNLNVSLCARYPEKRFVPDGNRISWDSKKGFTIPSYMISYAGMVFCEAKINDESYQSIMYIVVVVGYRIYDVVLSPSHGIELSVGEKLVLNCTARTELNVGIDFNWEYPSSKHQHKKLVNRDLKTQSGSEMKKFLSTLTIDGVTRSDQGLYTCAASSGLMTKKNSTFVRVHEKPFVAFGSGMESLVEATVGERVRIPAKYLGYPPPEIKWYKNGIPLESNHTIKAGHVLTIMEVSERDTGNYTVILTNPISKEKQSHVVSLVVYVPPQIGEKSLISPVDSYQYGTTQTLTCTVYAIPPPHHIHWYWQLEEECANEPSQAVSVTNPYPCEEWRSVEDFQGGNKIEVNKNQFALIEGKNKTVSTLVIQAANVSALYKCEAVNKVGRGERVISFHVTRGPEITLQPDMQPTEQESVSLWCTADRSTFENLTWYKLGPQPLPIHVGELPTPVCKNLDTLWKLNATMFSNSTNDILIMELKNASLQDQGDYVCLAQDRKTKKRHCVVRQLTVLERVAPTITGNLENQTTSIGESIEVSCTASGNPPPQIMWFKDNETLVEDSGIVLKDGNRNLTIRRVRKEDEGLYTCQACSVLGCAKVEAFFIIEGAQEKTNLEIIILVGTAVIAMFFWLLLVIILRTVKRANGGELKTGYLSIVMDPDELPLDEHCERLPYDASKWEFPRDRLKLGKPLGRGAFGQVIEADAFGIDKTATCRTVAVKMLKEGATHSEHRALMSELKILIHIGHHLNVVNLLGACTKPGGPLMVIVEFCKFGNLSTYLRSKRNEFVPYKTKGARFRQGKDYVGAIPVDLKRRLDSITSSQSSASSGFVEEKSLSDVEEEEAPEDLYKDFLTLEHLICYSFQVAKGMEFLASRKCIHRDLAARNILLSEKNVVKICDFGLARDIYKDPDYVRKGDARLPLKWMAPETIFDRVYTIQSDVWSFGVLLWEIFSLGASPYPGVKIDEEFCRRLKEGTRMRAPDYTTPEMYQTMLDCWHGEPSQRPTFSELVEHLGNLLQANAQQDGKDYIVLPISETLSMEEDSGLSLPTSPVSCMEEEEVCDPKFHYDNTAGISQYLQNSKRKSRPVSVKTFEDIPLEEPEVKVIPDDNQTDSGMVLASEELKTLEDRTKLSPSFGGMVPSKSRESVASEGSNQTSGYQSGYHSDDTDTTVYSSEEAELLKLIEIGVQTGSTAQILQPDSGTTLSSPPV

| Kinase inhibition rate (VEGFR-2) (VEGFR-2) | Structure (SMILES) | The inhibitory effect on the growth of chorioallantoic membrane vessels [1] | Rat Aortic Ring Assay (10 ug/ml), result in words (Rat aortic ring) |
| --- | --- | --- | --- |
| 18.10 | COc1cc2c(Nc3ccc(Br)c(F)c3)nnnc2cc1OCCCCl [Example 62, 6-methoxy-7-chloropropoxy-4-(3-fluoro-4-bromoanilino)-benzo[1,2,3]triazine] | The embryo is dead. | No significant inhibition |
| 1.51 | COc1cc2c(Nc3ccc(C(F)(F)F)cc3)nnnc2cc1OCCCCl [Example 68, 6-methoxy-7-chloropropoxy-4-(4-trifluoromethylanilino)-benzo[d][1,2,3]triazine] | Two samples exhibit inhibition at the zone covered by paper. | Vascular growth is significantly inhibited |
| 0.26 | COc1cc2c(Nc3ccccc3F)nnnc2cc1OCCCCl [Example 74, 6-methoxy-7-chloropropoxy-4-(2-fluoroanilino)-benzo[d][1,2,3]triazine] | The vessels become rare and are fractured at the zone covered by paper. | Vessel density was small, cells were elongated and cell |
| 0.80 | COc1cc2c(Nc3cccc(Br)c3)nnnc2cc1OCCCCl [Example 75, 6-methoxy-7-chloropropoxy-4-(3-bromoanilino)-benzo[d][1,2,3]triazine] | Smaller inhibition ring appears at the zone covered by paper. | No significant inhibition |

— patent US8349835B2, “Aromatic ring fused triazine derivatives and uses thereof” (Shenyang Pharmaceutical University, priority 2008, dated 2013)
